In patent US8344160B2, “Pyrrolone melanin concentrating hormone receptor-1 antagonists” (Bristol-Myers Squibb Company, priority 2008, dated 2013):
Structures can show the parent of a compound that is named as a salt.

What was measured:
[1] = target: T1, mutated (E4Q, A5T) hMCHR1 receptor (Homo sapiens, UniProt Q99705, A5T/E4Q); assay: Radioligand binding assay for assessment of MCHR1 activity; conditions: membranes from stably transfected HEK-293 cells; competition with [Phe13,[125I]Tyr19]-MCH
T1 construct: expressed in transfected cells; host or cells: HEK-293 (stably transfected), membrane preparation
T1 sequence (Q99705 whole entry E4Q/A5T): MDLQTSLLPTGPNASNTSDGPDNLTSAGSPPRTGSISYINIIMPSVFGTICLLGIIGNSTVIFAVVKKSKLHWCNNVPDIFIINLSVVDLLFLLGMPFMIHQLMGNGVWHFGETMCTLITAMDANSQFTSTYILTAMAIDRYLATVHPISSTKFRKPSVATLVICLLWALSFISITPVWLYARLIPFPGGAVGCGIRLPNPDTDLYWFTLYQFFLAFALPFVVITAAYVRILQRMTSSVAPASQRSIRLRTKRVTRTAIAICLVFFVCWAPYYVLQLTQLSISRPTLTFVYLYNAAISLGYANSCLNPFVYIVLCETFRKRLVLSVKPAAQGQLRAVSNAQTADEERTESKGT
Protocol: Radioligand Binding Assay for Assessment of MCHR1 Activity
Membranes from stably transfected HEK-293 cells expressing a mutated (E4Q, A5T) hMCHR1 receptor were prepared by dounce homogenization and differential centrifugation. Binding experiments were carried out with 0.5-1.0 ug of membrane protein incubated in a total of 0.2 ml in 25 mM HEPES (pH 7.4) with 10 mM MgCl2, 2 mM EGTA, and 0.1% BSA (Binding Buffer) for 90 min. For competition binding assays, reactions were carried out in the presence of with 0.06-0.1 nM [Phe^13, [^125I]Tyr^19]-MCH and increasing concentrations of unlabeled test molecules. Reactions were terminated by rapid vacuum filtration over 96 well-GFC UNIFILTER® plates pre-coated with 0.075 ml binding buffer containing 1% BSA, and washed 3 times with 0.4 ml of Phospho-buffered Saline (pH 7.4) containing 0.01% TX-100. Filters were dried, 0.05 ml microscint 20 was added to each well and radioactivity was subsequently quantified by scintillation counting on a TOPCOUNT® microplate scintillation counter (Packard). Inhibitory constants were determined by nonlinear least squares analysis using a four parameter logistic equation.

[2] = Assessment of in vivo MCHR activity: body weight of rats with a choice of chow and high fat/high sugar diet; parameters: species or system rat; conditions: male Sprague Dawley rats, 30 mg/kg p.o. daily day 0 through day 4, dosed as prodrug (Examples 57, 68, 66)
Protocol: Male SPRAGUE DAWLEY® (CD, Charles River Breeding Laboratory) rats weighing approximately 240 grams were place in individual plastic cages with ALPHADRI® bedding. The room was maintained at 72° F. and 50% humidity, and a 12/12 light dark cycle with lights out at 1600 hours. The rats were conditioned for 5 days prior to the start of the study to having a choice of foods. A normal chow (HARLAN TEKLAD®, 2018) that contains 18% protein, 5% fat and 73% carbohydrate and a high fat high sugar diet (Research Diets (D2327)) that contains 20% protein, 40% fat and 40% carbohydrate where the carbohydrate is entirely sucrose and the fat is soybean and coconut oil. […] Body weight and consumption of both kinds of food as well as water intake were measured daily. Water was available ad lib throughout the study. Food consumption is presented as daily caloric consumption which is the sum of grams of chow multiplied by the Kcal per gram (3.5) plus grams of high fat high sugar multiplied by Kcal per gram (4.59).
Baseline body weight was measured prior to drug treatment on day 0 of the study. Baseline food consumption was the average of the 3 days prior to the first drug treatment. Drug was administered daily p.o. at 2.0 ml/kg at 1500 hours beginning on day 0 and continuing daily through day 4 as a suspension in 0.5% methyl cellulose, 0.1% Tween 80 in water at 3.0, 10 and 30 mg/kg p.o. All data were evaluated using ANOVA and Fishers PLSD statistics.

Molecule	Ki [1] [nM]	Weight Reduction versus Vehicle [2] [%]
COc1cc(N2Cc3cc(-c4ncc(Cl)cn4)sc3C2=O)ccc1OCC(C)(C)OC(=O)CN [Example 68]	17.6	
COc1cc(N2Cc3cc(-c4ccc(Cl)cc4)sc3C2=O)ccc1O [Example 6]	30	
COc1cc(N2Cc3cc(-c4ncc(Cl)cn4)sc3C2=O)ccc1N1CCC(O)CC1 [Example 39]	33.6	
5-(4-(2-Hydroxy-2-methylpropoxy)-3-methoxyphenyl)-2-(6-methoxypyridin-3-yl)-4H-thieno[3,2-c]pyrrol-6(5H)-one, trifluoroacetic acid salt [Example 41]	800	
COc1cc(N2Cc3cc(-c4ccc(Cl)cc4)sc3C2=O)ccc1OCCN1CCCC1 [Example 3]	0.2	
COc1cc(N2Cc3cc(-c4ccc(Cl)cc4)sc3C2=O)ccc1OC[C@H](O)CS(C)(=O)=O [Example 15]	0.6	
CN[C@H]1CCN(c2ccc(N3Cc4cc(-c5ccc(Cl)cc5)sc4C3=O)cn2)C1 [Example 10]	0.3	
COc1cc(N2Cc3cc(-c4ccc(Cl)nc4)sc3C2=O)ccc1OCC(C)(C)O [Example 44]	21.6	
COc1cc(N2Cc3cc(-c4ccncc4)sc3C2=O)ccc1OCC(C)(C)O [Example 43]	1290	
COc1cc(N2Cc3cc(-c4ccc(Cl)cn4)sc3C2=O)ccc1OC[C@H](O)CS(C)(=O)=O [Example 31]		3.2
COc1cc(N2Cc3cc(-c4ccccn4)sc3C2=O)ccc1OCC(C)(C)O [Example 49, 5-(4-(2-Hydroxy-2-methylpropoxy)-3-methoxyphenyl)-2-(pyridin-2-yl)-4H-thieno[2,3-c]pyrrol-6(5H)-one, trifluoroacetic acid salt]	107	
COc1cc(N2Cc3nc(-c4ccc(Cl)cc4)oc3C2=O)ccc1OCC(C)(C)O [Example 53, 2-(4-Chlorophenyl)-5-(4-(2-hydroxy-2-methylpropoxy)-3-methoxyphenyl)-4H-pyrrolo[3,4-d]oxazol-6(5H)-one]	248	
COc1cc(N2Cc3cc(-c4ncc(Cl)cn4)sc3C2=O)ccc1OCC(C)(C)O [Example 33]	17	4.8
COc1cc(N2Cc3cc(-c4ccc(Cl)cc4)oc3C2=O)ccc1OCC(C)(C)O [Example 54, 2-(4-Chlorophenyl)-5-(4-(2-hydroxy-2-methylpropoxy)-3-methoxyphenyl)-4H-furo[3,2-c]pyrrol-6(5H)-one]	13.3	
COc1cc(N2Cc3cc(-c4ccc(Cl)cc4)sc3C2=O)ccc1OC[C@H](O)C1CC1 [Example 2]	2.5	
COc1cc(N2Cc3cc(-c4ccc(Cl)cn4)sc3C2=O)ccc1OCC(O)C(F)(F)F (stereo not drawn) [Example 27]	2.5	
COc1cc(N2Cc3nc(-c4ccc(Cl)cc4)sc3C2=O)ccc1OCC(C)(C)O [Example 52, 2-(4-Chlorophenyl)-5-(4-(2-hydroxy-2-methylpropoxy)-3-methoxyphenyl)-4H-pyrrolo[3,4-d]thiazol-6(5H)-one]	68	
CN(C)[C@@H]1CCN(c2ccc(N3Cc4cc(-c5ccc(Cl)cc5)sc4C3=O)cn2)C1 [Example 21, (R)-2-(4-Chlorophenyl)-5-(6-(3-(dimethylamino)pyrrolidin-1-yl)pyridin-3-yl)-4H-thieno[3,2-c]pyrrol-6(5H)-one]	0.2	
COc1cc(N2Cc3cc(-c4ccc(Cl)cc4)sc3C2=O)ccc1OCC(C)(C)O [Example 1, 2-(4-Chlorophenyl)-5-(4-(2-hydroxy-2-methylpropoxy)-3-methoxyphenyl)-4H-thieno[3,2-c]pyrrol-6(5H)-one]	1.9	3.9
